System: Cryptococcus neoformans var. grubii H99
Experiment: Fungicidal efficacy (CFU survival rate) of AbA, AmB and their combination, with or without IPC
Assay type: cell-based
Settings: AmB 1 μg/mL, 1 hour in YPD medium; for the combination AbA 1 μg/mL added 6 hours before AmB
Experimental: In this example, the antifungal activity of AbA was evaluated. Specifically, the inventors tested the activity of AbA alone and in combination with AmB against Cryptococcus. In addition, the inventors also tested the effect of purified IPC on the antifungal activity of AbA alone and in combination with AmB against Cryptococcus. The specific experimental procedures are as follows.
In this example, a total of 5 groups were set up, including AbA alone, AmB alone, AbA combined with AmB, AbA combined with AmB in the presence of 1 mg/mL IPC, and AbA combined with AmB in the presence of 10 mg/mL IPC. The fungicidal efficacy of the above 5 groups of treatments against Cryptococcus neoformans var. grubii H99 (a laboratory strain) was evaluated. The survival rate of Cryptococcus after 1 hour of treatment with AmB in YPD medium was determined by calculating the CFU ratio between AmB-treated and untreated samples. AbA and IPC were added 6 hours prior to AmB treatment as a pre-treatment. AbA was purchased from Biorigin, AmB from Inalco, and IPC was extracted from an ERG6 gene knockout H99 mutant strain defective in ergosterol biosynthesis.

SMILES: C[C@@H]1[C@H](O)[C@@H](C)/C=C/C=C/C=C/C=C/C=C/C=C/C=C/[C@H](O[C@@H]2O[C@H](C)[C@@H](O)[C@H](N)[C@@H]2O)C[C@@H]2O[C@](O)(C[C@@H](O)C[C@@H](O)[C@H](O)CC[C@@H](O)C[C@@H](O)CC(=O)O[C@H]1C)C[C@H](O)[C@H]2C(=O)O [AmB, amphotericin B]
- survival rate of Cryptococcus neoformans (CFU ratio between AmB-treated and untreated samples): 39%

— patent publication US20260061026A1, “COMBINATION OF INOSITOL PHOSPHORYLCERAMIDE SYNTHETASE INHIBITOR AND AMPHOTERICIN B, AND USE THEREOF” (priority 2023, published 2026)
